The values that follow come from patent US6171786A, “Methods for preventing multidrug resistance in cancer cells” (priority 1996, dated 2001).

Entries after “also recorded” stand apart in the source; their conditions may differ. Like-named read-outs stand apart in the source and are kept apart here.

In series [1] the test system is MDR1 expression. In words: Inhibition of cytotoxic drug-induced MDR1 expression by protein kinase inhibitors (cDNA-PCR). The note with it: for inhibition of MDR1 induction by cytotoxic drugs: concentration not stated. As for the experimental part: Cells were plated in 6-well Falcon tissue culture plates at 3,300 cells per well, and incubated in the appropriate concentrations of drugs. Each of the protein kinase inhibitors to be tested were added at the appropriate final concentration 45 minutes prior to MDR1 induction by the addition of Ara-C or TPA, with the exception of herbimycin A, which was added 12 hours prior to Ara-C or TPA, and tyrphostins A25 and B46, which were each added 16 hours prior to MDR1 induction by the addition of Ara-C or TPA. Cells were incubated overnight (TPA) or for 10 hours (Ara-C) at 37° C./ 5% CO2 after the addition of the MDR1 inducing agents before harvesting for cDNA-PCR analysis.
In addition, the analysis of certain drugs imposed added requirements. For experiments using calphostin C, cells were incubated under direct white light illumination. For experiments using D,L-threo-sphingosine, the cell culture medium was pre-treated with the appropriate concentration of the drug for one hour at 37° C. with continuous gentle mixing. After this pretreatment, cells were resuspended in media supplemented with drug and incubated for 45 minutes as described above.
To further evaluate the capacity of protein kinase inhibitors to suppress MDR1 induction by cytotoxic drugs and PKC agonists, H-9 human T-cell leukemia cells were used in cDNA-PCR assays to examine induced MDR1 mRNA expression levels in the presence of protein kinase inhibitors.

The test system of series [2] is MDR1 expression (P-glycoprotein). Description: Induction of MDR1 expression by cytotoxic drugs (dye efflux, UIC2, cDNA-PCR). The format is cell-based, human. On the procedure: (§1) (Commercially-available kits (for example, from GIBCO/BRL, Gaithersburg, Md.) can be advantageously modified for making cDNA using random hexamers.) PCR is then performed using the following primers: […]
(§2) (where β2 M represents β2 microglobulin). PCR was performed for β2 M experiments under a regime consisting of 1 cycle comprising denaturation at 94° C. for 3 minutes, primer annealing at 60° C. for 30 seconds, and primer extension at 72° C. for 1 minute, followed by 19 cycles comprising denaturation at 94° C. for 30 seconds, primer annealing at 60° C. for 30 seconds, and primer extension at 72° C. for 1 minute, followed by a final cycle comprising denaturation at 94° C. for 30 seconds, primer annealing at 60° C. for 30 seconds, and primer extension at 72° C. for 5 minutes. MDR1 cDNA sequences were amplified using the identical protocol as for β2 M, but extending the amplification from 19 cycles to 25 cycles. In addition, the cDNA-PCR amplification protocol contained the following modifications: (i) Taq DNA polymerase was added to the PCR mixtures after initial heating of the samples to 94° C. (ii) The yield of the β2 -microglobulin-specific band, obtained after 22-28 cycles of PCR, was used as the primary criterion for equalizing the starting amounts of the cDNA templates in different preparations, in order to account for differential RNA degradation in cells subjected to different types of treatment. ^32 P-labeled PCR products were detected by autoradiography.
In particular PKC is activated by treatment with Ara-C. Therefore, experiments were performed to test whether Ara-C, which is not transported by P-glycoprotein, would have any effect on P-glycoprotein function in K562 leukemia cells.
Also assayed was whether drug-induced MDR1 expression was maintained after cytotoxic drug treatment. […] At different times, MDR1 expression in the surviving cells was analyzed by dye efflux and immunofluorescence labeling with UIC2 (FIG. 3C) or by cDNA-PCR (FIG. 4E).

In series [3] the test system is MDR1 expression. Description: Inhibition of cytotoxic drug-induced MDR1 expression by cytoplasmic calcium antagonists and calmodulin inhibitors. The format is cell-based, human. The note with it: H9. On the procedure:
H9 cells were incubated as described above in the presence of the following cytotoxic drugs: Ara C (at a concentration of 25 μM), Adriamycin (2 μM), bleomycin (100 μg/ml), 2-deoxyglucose (10 mM) and nocodazole (2.5 μM). In parallel, cultures of H9 cells were incubated in the presence of each of these cytotoxic drugs and of a highly specific chelator of intracellular calcium ion, 1, 2-bis(o-aminophenoxy)-ethane-N,N,N',N'-tetraacetic acid, tetra(acetoxymethyl)-ester (BAPTA/AM) at a concentration of 5 μM for 10 hrs. under the conditions described above. The inhibitor was added 45 min. prior to the addition of each of the MDR1 inducing agents. cDNA-PCR analysis, including gel electrophoresis and autoradiography as described above, was performed for each culture after drug treatment in the presence or absence of this chelator.
H9 cells were incubated as above with 25 μM AraC in the presence or absence of 10 μM calmidazolium chloride, and cDNA-PCR analysis as described above was performed.

For series [4], the system named is MDR1 expression (P-glycoprotein). Description: MDR1/P-glycoprotein expression in human cells treated with TPA, DOG, other agents (Rh123 accumulation, UIC2 staining, cDNA-PCR). The format is cell-based. As for the experimental part: KG1 cell line was maintained in Iscove's modified Dulbecco medium with 20% fetal calf serum (FCS) and 2 mM L-glutamine, 100 units/mL penicillin and 100 μg/mL streptomycin (GIBCO Laboratories, Grand Island, N.Y.).
PBL were treated with 1 ng/mL TPA; H9 and K562 cells with 10 ng/mL TPA; KG1a and KG1 cells with 100 ng/mL TPA and the other cell lines with 10 ng/mL TPA.
Mouse IgG2a isotype control antibody was obtained from Sigma. For staining of PBL with UIC2 mAb or isotype control, 10^6 cells were stained at 4° C. with 10 μg of the antibody for 30 minutes and, after two washes, stained for 30 minutes with 10 μg of FITC-conjugated goat anti-mouse IgG2a antibody (Fisher Scientific, Fairlawn, N.J.), diluted 1:2 with PBS plus 2% FCS. Cells were then washed twice with ice-cold PBS plus 2% FCS, stained with PI and kept on ice until analysis. Essentially the same protocol was used for staining of other cell types except that 2 μg of the secondary antibody were used per 10^6 cells. In some experiments, phycoerythrine (PE)-conjugated goat anti-mouse IgG2a was used as the secondary antibody; no PI was added in such cases.
as §1, §2
A functional assay was used to detect changes in P-glycoprotein activity in human PBL treated with different agents that induce lymphoid differentiation or activation, based on flow cytometric analysis of cellular accumulation of Rh123, which is a P-glycoprotein-transported fluorescent mitochondrial dye. In this assay, cells expressing little or no P-glycoprotein stain brightly with Rh123, whereas cells with higher levels of P-glycoprotein activity appear Rh123-dull. […] Since the best-known cellular effect of TPA is the stimulation of PKC, DOG (a cell-permeable diacylglycerol and a physiological stimulant of PKC) was also tested to determine its effects on Rh123 accumulation in PBL.

[5] abbreviates: human leukemia and solid-tumor derived cell lines, short-term exposure.
Setting [6] is: 50-100 μM tyrphostin, H-9 cells.

On to `CCCCCCCCCCCCC/C=C/[C@H](O)[C@@H](N)CO` (relative stereo) [D,L-threo-sphingosine], for which the “inhibition of Ara-C induced MDR1 expression” value in series [1] (5 μM D,L-threo-sphingosine) was “little or no capacity to inhibit Ara-C induced MDR1 expression; also recorded: ineffective”. In addition, the “Inhibition of Ara-C induced MDR1 expression” value in series [1] (5 μM, H-9, 25 μM Ara-C 10 h) is “-”.

`O=c1[nH]cc(F)c(=O)[nH]1` [5-fluorouracil]: the MDR1 induction result in series [2] is “MDR1 induction, both at the mRNA and at the protein levels, was observed”.

With `COc1cccc2c1C(=O)c1c(O)c3c(c(O)c1C2=O)C[C@@](O)(C(=O)CO)C[C@@H]3O[C@H]1C[C@H](N)[C@H](O)[C@H](C)O1` [Adriamycin, Doxorubicin], in series [2] (K562), the “Rh123 or DiOC2(3) efflux by treated cells” value (“Rh123 or DiOC2(3) efflux” below) is listed as 3-10%. Further, the “MDR1 mRNA expression” value is given as “induce MDR1 mRNA expression” in series [2] (K562, cDNA-PCR) and “MDR1 mRNA expression was induced” in series [2] (KB-3-1 epidermoid carcinoma). The “maintenance of MDR1 expression after removal of drug” value in series [2] (K562 subpopulation, treated 3-5 days then drug-free) is reported as “maintained for a least several weeks”. Also, in series [2] (setting [5]), the MDR1 induction result was “MDR1 induction, both at the mRNA and at the protein levels, was observed”.

On to `CC(=O)OCOC(=O)CN(CC(=O)OCOC(C)=O)c1ccccc1OCCOc1ccccc1N(CC(=O)OCOC(C)=O)CC(=O)OCOC(C)=O` [BAPTA/AM, 1,2-bis(o-aminophenoxy)ethane-N,N,N',N'-tetraacetic acid, tetra(acetoxymethyl)ester], for which, in series [3] (5 μM BAPTA/AM), the “inhibition of MDR1 induction by 2-deoxyglucose (10 mM)” value was “completely abrogate the induction of MDR1 expression”, the “inhibition of MDR1 induction by Adriamycin (2 μM)” value is “completely abrogate the induction of MDR1 expression”, the “inhibition of MDR1 induction by Ara C (25 μM)” value is on record as “completely abrogate the induction of MDR1 expression” and the “inhibition of MDR1 induction by bleomycin (100 μg/ml)” value is recorded as “completely abrogate the induction of MDR1 expression”. Also, in series [3] (5 μM BAPTA/AM), the “inhibition of MDR1 induction by different cytotoxic agents” value was “completely abrogated the induction of MDR1 expression” and the “inhibition of MDR1 induction by nocodazole (2.5 μM)” value is recorded as “completely abrogate the induction of MDR1 expression”. The “time prior to addition of MDR1 inducers within which inhibitory effect was detectable” value in series [3] (BAPTA/AM) was not above 3 h.

Take `CCCCCCCC(=O)OCC(CO)OC(=O)CCCCCCC` (stereo not drawn) [DOG, 1,2-dioctanoylglycerol]: the “effect on P-glycoprotein activity (Rh123 accumulation)” value in series [4] (human PBL) is listed as “decrease Rh123 accumulation”. Besides, the MDR1 gene expression result in series [4] (normal human PBL and leukemia/solid tumor cell lines) is “increase MDR1 gene expression”.

Turning to `CC1CNCCN1S(=O)(=O)c1cccc2cnccc12` (stereo not drawn) [H7], in series [1], the “prevention of MDR1 induction by chemotherapeutic drugs” value is on record as “prevent MDR1 induction by chemotherapeutic drugs” and the “inhibition of MDR1 induction by cytotoxic drugs” value is given as “capable of inhibiting MDR1 induction by cytotoxic drugs”.

As for `COc1c(CC(C)OC(=O)Oc2ccc(O)cc2)c2c3c(CC(C)OC(=O)c4ccccc4)c(OC)c(=O)c4c(O)cc(OC)c(c5c(OC)cc(O)c(c1=O)c52)c43` (stereo not drawn) [calphostin C], the “inhibitory capacity on Ara-C induced MDR1 expression” value in series [1] (0.1 μM calphostin C + white light) is reported as “greatly reduced”. In series [1] (1 μM calphostin C + white light), the “inhibition of Ara-C induced MDR1 expression” value is “capable of inhibiting MDR1 expression; also recorded: prevent MDR1 induction by chemotherapeutic drugs”. In addition, in series [1], the “inhibition of MDR1 induction by cytotoxic drugs” value is reported as “capable of inhibiting MDR1 induction by cytotoxic drugs”.

Consider `N.N.[Cl][Pt][Cl]` [cisplatin], for which, in series [2] (K562), the “Rh123 or DiOC2(3) efflux” value was 3-10%. Moreover, the “MDR1 mRNA expression” value in series [2] (K562, cDNA-PCR) is “induce MDR1 mRNA expression”. The MDR1 induction result in series [2] (setting [5]) is “MDR1 induction, both at the mRNA and at the protein levels, was observed”.

Consider `COc1cccc2c1C(=O)c1c(O)c3c(c(O)c1C2=O)C[C@@](O)(C(C)=O)C[C@@H]3O[C@H]1C[C@H](N)[C@H](O)[C@H](C)O1` [daunorubicin], for which, in series [2], the MDR1 induction result is “MDR1 induction, both at the mRNA and at the protein levels, was observed”; the “MDR1 mRNA expression” value was “induce MDR1 mRNA expression”; the “Rh123 or DiOC2(3) efflux” value is on record as 3-10%.

For `COc1cc([C@@H]2c3cc4c(cc3[C@@H](O[C@@H]3O[C@@H]5CO[C@@H](C)O[C@H]5[C@H](O)[C@H]3O)[C@H]3COC(=O)[C@H]23)OCO4)cc(OC)c1O` [etoposide], the MDR1 induction result in series [2] is “MDR1 induction, both at the mRNA and at the protein levels, was observed”.

Consider `O=c1c(-c2ccc(O)cc2)coc2cc(O)cc(O)c12` [genistein], for which, in series [1], the “Inhibition of Ara-C induced MDR1 expression” value is “+” and the “inhibition of Ara-C induced MDR1 expression” value is reported as “only weakly inhibited Ara-C induced MDR1 expression”.

For `COC1C=CC=C(C)C(=O)NC2=CC(=O)C=C(C2=O)C(OC)C(C)CC(OC)C(OC)C(C)C=C(C)C1OC(N)=O` (stereo not drawn) [herbimycin A], the “inhibition of Ara-C induced MDR1 expression” value in series [1] (0.35-3 μM herbimycin A) was “little or no capacity to inhibit Ara-C induced MDR1 expression; also recorded: ineffective at inhibiting MDR1 induction by Ara-C”.

Consider `NC(=O)NO` [hydroxyurea], for which, in series [2], the MDR1 induction entry is “MDR1 induction, both at the mRNA and at the protein levels, was observed”; the “MDR1 mRNA expression” value is reported as “induce MDR1 mRNA expression”. Besides, the “Rh123 or DiOC2(3) efflux” value in series [2] (K562) was 3-10%.

`CN(Cc1cnc2nc(N)nc(N)c2n1)c1ccc(C(=O)N[C@@H](CCC(=O)O)C(=O)O)cc1` [methotrexate]: in series [2], the MDR1 induction entry was “MDR1 induction, both at the mRNA and at the protein levels, was observed”; the “maintenance of MDR1 expression after removal of drug” value is given as “maintained for a least several weeks”.

As to `N#CC(C#N)=Cc1cc(O)c(O)c(O)c1` [tyrphostin A25], the “inhibition of Ara-C induced MDR1 expression” value in series [1] (setting [6]) was “strongly inhibit Ara-C induced MDR1 expression; also recorded: inhibit Ara-C induced MDR1 expression”.

As to `N#CC(=Cc1ccc(O)c(O)c1)C(=O)NCCCc1ccccc1` [tyrphostin B46], the “inhibition of Ara-C induced MDR1 expression” value in series [1] (setting [6]) was “strongly inhibit Ara-C induced MDR1 expression; also recorded: inhibit Ara-C induced MDR1 expression”.
